Patent US10494380B2, “Nitrogen-containing tricyclic derivatives having HIV replication inhibitory activity” (priority 2015, dated 2019)
Read-outs that look alike come from different tables or passages of the source.

How the values were obtained:
Format in all cases: cell-based
HIV = conditions: EC50 in the presence of human serum (25%) versus without human serum, MT-4 cells
How it was run: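 Compound is preincubated 1 h at room temperature with human serum, or with medium alone as the serum-free control. MT-4 cells infected with HIV (1 h, 37° C) are added and cultured 4 days. EC50 is determined with and without serum; their ratio gives the potency shift.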

HIV (HTLV-IIIB strain) = test: HIV replication inhibition assay (Test Example 1; MT-4 cells, MTT); conditions: Human immunodeficiency virus 1, MT4, 96 h, MT-4 cells, MTT; for EC50: read-out: EC50; for EC90: read-out: EC90
Method: HIV (HTLV-IIIB strain) persistent infected human T cell strain Molt-4 clone8 was cultured in RPMI-1640 medium supplemented with 10% fetal bovine serum and the supernatant was filtered, then the virus titer was measured and stored at −80° C. Each anti-human immunodeficiency virus active substance was diluted with the above culture medium to the designated concentration, which was dispensed into 96-well microtiter plate by 50 μL. Next, 100 μL of MT-4 cell suspension (2.5×10^4 cells) was dispensed into each well, then 50 μl of the above HIV-containing supernatant diluted with the above culture medium was added thereto (60 pfu (plaque forming unit)).
Cell mixture was cultured at 37° C. in CO2 incubator for four days, then 30 μL of MTT (3-(4,5-dimethylthiazole-2-yl)-2,5-diphenyltetrazolyum bromide) reagent (5 mg/mL in PBS) was added to all wells followed by incubation for 1 hour. In this step, MTT was reduced to insoluble formazan in living cells. To elute generated formazan 150 μL of the culture supernatant was removed from all wells, then 150 μL of cell lysis solution (10% Triton X-100 and 0.4% (v/v)-HCl containing isopropanol) was added thereto, followed by shaking with a plate mixer. The formazan was measured with micro plate reader at OD: 560 nm and 690 nm (reference wavelength) and the result was compared with the reference wells. EC50 and EC90 mean the compound concentration at which cytotoxicity caused by virus infection is inhibited 50% and 90%, respectively.

[1] = tested on: T125A mutant virus (HIV-1 NL-432 recombinant molecular clone, IN gene); test: HIV replication inhibition assay against integrase 124/125 mutant virus (Test Example 2); conditions: Human immunodeficiency virus 1, MT4, read-out: EC50 against T125A mutant virus, T125A mutant virus (HIV-1 NL-432 IN gene), MT-4 cells, MTT
How it was run: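 MT-4 cells (2.5×10^4 per well) infected with 60 pfu of 293T-derived HIV-1 NL-432 clone carrying integrase 124/125 point mutations, in presence of compound, cultured 4 days at 37 °C. Viability by MTT formazan at 560/690 nm; EC50 = concentration inhibiting 50% of virus-induced cytotoxicity.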

[2] = HIV (HTLV-IIIB strain), four days
[3] = HIV HTLV-IIIB strain, cultured four days

Structure (SMILES) | Potency shift value (HIV) | EC50 (HIV (HTLV-IIIB strain); [2]) [nM] | EC90 (HIV (HTLV-IIIB strain); [2]) [nM] | EC50 [1] [nM] | EC50 (HIV (HTLV-IIIB strain); [3]) [nM]
Cc1ccc(-c2c([C@H](OC(C)(C)C)C(=O)O)c(C)c3c4c2cc(C)n4CCN3CCO)cc1 [Compound I-021] | 5.4 | 5.2 | 7.5 | 22 | –
Cc1c([C@H](OC(C)(C)C)C(=O)O)c(-c2ccc(Cl)cc2)c2cc(C)n3c2c1N1C(=O)OCC[C@@H]1C3 [Compound I-167] | 4.1 | – | 18 | 49 | 7.6
COCCCOc1cnc(N2CCn3c(C)cc4c(-c5ccc(Cl)cc5)c([C@H](OC(C)(C)C)C(=O)O)c(C)c2c43)nc1 [Compound I-255] | 22 | 1.6 | 2.4 | 5.1 | –
COc1cnc(N2CCn3c(C)cc4c(-c5c(F)cc(C)cc5F)c([C@H](OC(C)(C)C)C(=O)O)c(C)c2c43)nc1 [Compound I-230] | 24 | 1.8 | 3.3 | 6.7 | –
Cc1ccc(-c2c([C@H](OC(C)(C)C)C(=O)O)c(C)c3c4c2cc(C)n4CCN3CCN2C3CCC2COC3)cc1 [Compound I-172] | 2.3 | – | 5.4 | 16 | 3.5
Cc1ccc(-c2c([C@H](OC(C)(C)C)C(=O)O)c(C)c3c4c2cc(C(F)(F)F)n4CCN3C)cc1 [Compound I-007] | 49 | 2 | 3.6 | 18 | –
Cc1c([C@H](OC(C)(C)C)C(=O)O)c(-c2ccc(Cl)cc2)c2cc(C)n3c2c1N(c1ncc(OCCO)cn1)CC3 [Compound I-254] | 10 | 7.9 | 13 | 17 | –
Cc1c([C@H](OC(C)(C)C)C(=O)O)c(-c2ccc(Cl)cc2)c2cc(C)n3c2c1NC(=O)C3 [Compound I-016] | 8.6 | 8.7 | 13 | 42 | –
Cc1ccc(-c2c([C@H](OC(C)(C)C)C(=O)O)c(C)c3c4c2cc(C)n4CCN3c2ncc(O[C@@H]3CCN(C)C3)cn2)cc1 [Compound I-279] | 3.5 | 5.1 | 7.7 | 13 | –
Cc1ccc(-c2c([C@H](OC(C)(C)C)C(=O)O)c(C)c3c4c2cc(C)n4CCN3c2ncc(OCC3COC3)cn2)cc1 [Compound I-268] | 19 | 1.5 | 2.1 | 4.8 | –
Cc1ccc(-c2c([C@H](OC(C)(C)C)C(=O)O)c(Cl)c3c4c2cc(C)n4CCN3CCN(C)C)cc1 [Compound I-265] | 2.5 | 13 | 30 | 44 | –
Cc1ccc(-c2c([C@H](OC(C)(C)C)C(=O)O)c(C)c3c4c2cc(C)n4CCN3c2ncc(N3CCOCC3)cn2)cc1 [Compound I-272] | 16 | 1.6 | 2 | 4.3 | –
Cc1c([C@H](OC(C)(C)C)C(=O)O)c(-c2ccc(Cl)cc2)c2cc(C)n3c2c1N(C(=O)CN(C)C)CC3 [Compound I-017] | 4.5 | 20 | 31 | 94 | –
CCS(=O)(=O)N1CCn2c(C)cc3c(-c4ccc(Cl)cc4)c([C@H](OC(C)(C)C)C(=O)O)c(C)c1c32 [Compound I-023] | 12 | 1 | 2.6 | 5.5 | –
Cc1ccc(-c2c([C@H](OC(C)(C)C)C(=O)O)c(C)c3c4c2cc(C)n4CCN3c2ncc(C)cn2)cc1 [Compound I-235] | 46 | 1.6 | – | 2.8 | –
Cc1ccc(-c2c([C@H](OC(C)(C)C)C(=O)O)c(C)c3c4c2cc(C)n4CCN3C)c(O)c1 (mixture of isomers) [Compound I-245] | 12 | 27 | 42 | 63 | –
